Reference: patent publication US7056924B2, “Substituted heterocyclic compounds” (CV Therapeutics, Inc., priority 2002, dated 2006)

System: Palmitoyl CoA oxidation in rat heart mitochondria
Test: Mitochondrial assay: Palmitoyl CoA oxidation
Format: biochemical
Conditions: for IC50: 16 microM 1-C14 palmitoyl CoA, 15 min at 30° C., read-out: Effect of Compounds of the Invention on Palmitoyl CoA Oxidation (IC50)
Description: Rat heart mitochondria were isolated by the method of Nedergard and Cannon (Methods in Enzymol. 55, 3, 1979).
Palmitoyl CoA oxidation—The Palmitoyl CoA oxidation was carried out in a total volume of 100 micro liters containing the following agents: 110 mM KCl, 33 mM Tris buffer at pH 8, 2 mM KPi, 2 mM MgCl2, 0.1 mM EDTA, 14.7 microM defatted BSA, 0.5 mM malic acid, 13 mM carnitine, 1 mM ADP, 52 micrograms of mitochondrial protein, and 16 microM 1-C14 palmitoyl CoA (Sp. Activity 60 mCi/mmole; 20 microCi/ml, using 5 microliters per assay). The compounds of this invention were added in a DMSO solution at the following concentrations: 100 micro molar, 30 micro molar, and 3 micro molar. In each assay, a DMSO control was used. After 15 min at 30° C., the enzymatic reaction was centrifuged (20,000 g for 1 min), and 70 microliters of the supernatant was added to an activated reverse phase silicic acid column (approximately 0.5 ml of silicic acid). The column was eluted with 2 ml of water, and 0.5 ml of the eluent was used for scintillation counting to determine the amount of C^14 trapped as C^14 bicarbonate ion.

IC50 [µM] | Molecule | Effect on Palmitoyl CoA Oxidation, % at 30 uM (at 30 uM) [% at 30 uM]
0.44 | 3-{(2R)-2-methyl-4-[(5-phenylisoxazol-3-yl)methyl]piperazinyl}(2S)-1-(2-methylbenzothiazol-5-yloxy)propan-2-ol | 
0.1 | Cc1nc2cc(OC[C@H](O)CN3CCN(Cc4nc(-c5ccc(Cl)cc5Cl)no4)C[C@@H]3C)ccc2s1 [(2R)-1-((2S)-4-{[3-(2,4-dichlorophenyl)(1,2,4-oxadiazol-5-yl)]methyl}-2-methylpiperazinyl)-3-(2-methylbenzothiazol-5-yloxy)propan-2-ol] | 
0.53 | Cc1nc2cc(OC[C@H](O)CN3CCN(Cc4nnc(-c5ccc(C(F)(F)F)cc5)o4)C[C@@H]3C)ccc2s1 [(2R)-1-[(2S)-2-methyl-4-({5-[4-(trifluoromethyl)phenyl](1,3,4-oxadiazol-2-yl)}methyl)piperazinyl]-3-(2-methylbenzothiazol-5-yloxy)propan-2-ol] | 
0.14 | Cc1nc2cc(OC[C@H](O)CN3CCN(Cc4cc(-c5ccc(Cl)cc5)on4)C[C@@H]3C)ccc2s1 [(2R)-3-[(2S)-2-methyl-4-({5-[4-chlorophenyl]isoxazol-3-yl}methyl)piperazinyl]-1-(2-methylbenzothiazol-5-yloxy)propan-2-ol] | 
2.1 | (2R)-1-(4-{[5-(2-chlorophenyl)(1,3,4-oxadiazol-2-yl)]methyl}piperazinyl)-3-(2-methylbenzothiazol-5-yloxy)propan-2-ol | 
8.5 | (2R)-1-(4-{[5-(4-chlorophenyl)(1,3,4-oxadiazol-2-yl)]methyl}piperazinyl)-3-(2-methylbenzothiazol-5-yloxy)propan-2-ol | 
1.18 | (2R)-1-((2S)-2-methyl-4-{[5-(4-phenylphenyl)(1,3,4-oxadiazol-2-yl)]methyl}piperazinyl)-3-(2-methylbenzothiazol-5-yloxy)propan-2-ol | 
0.41 | (2R)-1-((3S)-4-{[2-(4-chlorophenyl)(1,3-thiazol-4-yl)]methyl}-3-methylpiperazinyl)-3-(2-methylbenzothiazol-5-yloxy)propan-2-ol | 
0.68 | (2R)-1-((3S)-4-{[5-(2,4-dichlorophenyl)(1,2,4-oxadiazol-3-yl)]methyl}-3-methylpiperazinyl)-3-(2-methylbenzothiazol-5-yloxy)propan-2-ol | 
1.05 | (2R)-1-[(2S)-2-methyl-4-({5-[3-(trifluoromethyl)phenyl](1,3,4-oxadiazol-2-yl)}methyl)piperazinyl]-3-(2-methylbenzothiazol-5-yloxy)propan-2-ol | 
1.48 | (2R)-1-[(2S)-4-({5-[4-(dimethylamino)phenyl](1,3,4-oxadiazol-2-yl)}methyl)-2-methylpiperazinyl]-3-(2-methylbenzothiazol-5-yloxy)propan-2-ol | 
0.39 | (2R)-1-[(2S)-4-({5-[4-(tert-butyl)phenyl](1,3,4-oxadiazol-2-yl)}methyl)-2-methylpiperazinyl]-3-(2-methylbenzothiazol-5-yloxy)propan-2-ol | 
0.21 | (2R)-1-[(3S)-3-methyl-4-({2-[4-(trifluoromethyl)phenyl](1,3-thiazol-4-yl)}methyl)piperazinyl]-3-(2-methylbenzothiazol-5-yloxy)propan-2-ol | 
1.57 | (2R)-1-{(2S)-2-methyl-4-[(5-phenyl(1,3,4-oxadiazol-2-yl))methyl]piperazinyl}-3-(2-methylbenzothiazol-5-yloxy)propan-2-ol | 
0.34 | (2R)-1-{(3S)-3-methyl-4-[(2-phenyl(1,3-thiazol-4-yl))methyl]piperazinyl}-3-(2-methylbenzothiazol-5-yloxy)propan-2-ol | 
0.23 | (2R)-3-(2-methylbenzothiazol-5-yloxy)-1-(4-{[3-(2-methylphenyl)(1,2,4-oxadiazol-5-yl)]methyl}piperazinyl)propan-2-ol | 
1.17 | (2R)-3-(2-methylbenzothiazol-5-yloxy)-1-(4-{[5-(2-methylphenyl)(1,2,4-oxadiazol-3-yl)]methyl}piperazinyl)propan-2-ol | 
0.99 | (2R)-3-(2-methylbenzothiazol-5-yloxy)-1-(4-{[5-(4-phenylphenyl)(1,3,4-oxadiazol-2-yl)]methyl}piperazinyl)propan-2-ol | 
4.8 | (2R)-3-(2-methylbenzothiazol-5-yloxy)-1-[4-({5-[4-(trifluoromethyl)phenyl](1,3,4-oxadiazol-2-yl)}methyl)piperazinyl]propan-2-ol | 
1.1 | (2R)-3-(2-methylbenzothiazol-5-yloxy)-1-{4-[(5-phenyl(1,3,4-oxadiazol-2-yl))methyl]piperazinyl}propan-2-ol | 
0.73 | (2R)-3-((2S)-4-{[5-(3,4-dichlorophenyl)isoxazol-3-yl]methyl}-2-methylpiperazinyl)-1-(2-methylbenzothiazol-5-yloxy)propan-2-ol | 
1.24 | (2R)-3-((2S)-4-{[5-(4-methoxyphenyl)(1,3,4-oxadiazol-2-yl)]methyl}-2-methylpiperazinyl)-1-(2-methylbenzothiazol-5-yloxy)propan-2-ol | 
0.97 | (2R)-3-((3S)-3-methyl-4-{[5-(4-phenylphenyl)isoxazol-3-yl]methyl}piperazinyl)-1-(2-methylbenzothiazol-5-yloxy)propan-2-ol | 

Continued, molecule first:

Molecule | IC50 [µM] | Effect on Palmitoyl CoA Oxidation, % at 30 uM (at 30 uM) [% at 30 uM]
Cc1nc2cc(OC[C@H](O)CN3CCN(Cc4nc5cc(-c6ccccc6)ccc5o4)CC3)ccc2s1 [(2R)-3-(2-methylbenzothiazol-5-yloxy)-1-{4-[(5-phenylbenzoxazol-2-yl)methyl]piperazinyl}propan-2-ol] | 3.6 | 
(2R)-1-(4-{[3-(2,4-dichlorophenyl)(1,2,4-oxadiazol-5-yl)]methyl}piperazinyl)-3-(2-methylbenzothiazol-5-yloxy)propan-2-ol | 1.14 | 
(2R)-1-(4-{[3-(2-chlorophenyl)(1,2,4-oxadiazol-5-yl)]methyl}piperazinyl)-3-(2-methylbenzothiazol-5-yloxy)propan-2-ol | 1.34 | 
(2R)-1-(4-{[3-(2-fluorophenyl)(1,2,4-oxadiazol-5-yl)]methyl}piperazinyl)-3-(2-methylbenzothiazol-5-yloxy)propan-2-ol | 5.7 | 
(2R)-1-(4-{[5-(2-chlorophenyl)(1,2,4-oxadiazol-3-yl)]methyl}piperazinyl)-3-(2-methylbenzothiazol-5-yloxy)propan-2-ol | 1.14 | 
(2R)-1-(4-{[5-(4-methoxyphenyl)(1,3,4-oxadiazol-2-yl)]methyl}piperazinyl)-3-(2-methylbenzothiazol-5-yloxy)propan-2-ol | 8.9 | 
(2R)-1-((2S)-2-methyl-4-{[5-(4-methylphenyl)(1,3,4-oxadiazol-2-yl)]methyl}piperazinyl)-3-(2-methylbenzothiazol-5-yloxy)propan-2-ol | 0.54 | 
(2R)-1-((2S)-4-{[5-(4-chlorophenyl)(1,3,4-oxadiazol-2-yl)]methyl}-2-methylpiperazinyl)-3-(2-methylbenzothiazol-5-yloxy)propan-2-ol | 0.69 | 
(2R)-1-[4-({5-[4-(tert-butyl)phenyl](1,3,4-oxadiazol-2-yl)}methyl)piperazinyl]-3-(2-methylbenzothiazol-5-yloxy)propan-2-ol | 1.1 | 
(2R)-1-[(3S)-3-methyl-4-({5-[4-(trifluoromethyl)phenyl](1,2,4-oxadiazol-3-yl)}methyl)piperazinyl]-3-(2-methylbenzothiazol-5-yloxy)propan-2-ol | 4.7 | 
(2R)-1-{(2S)-2-methyl-4-[(5-(2-naphthyl)(1,3,4-oxadiazol-2-yl))methyl]piperazinyl}-3-(2-methylbenzothiazol-5-yloxy)propan-2-ol | 1.15 | 
(2R)-3-(2-methylbenzothiazol-5-yloxy)-1-(4-{[5-(4-methylphenyl)(1,3,4-oxadiazol-2-yl)]methyl}piperazinyl)propan-2-ol | 10.7 | 
(2R)-3-(2-methylbenzothiazol-5-yloxy)-1-[4-({5-[3-(trifluoromethyl)phenyl](1,2,4-oxadiazol-3-yl)}methyl)piperazinyl]propan-2-ol |  | 58
(2R)-3-(2-methylbenzothiazol-5-yloxy)-1-[4-({5-[3-(trifluoromethyl)phenyl](1,3,4-oxadiazol-2-yl)}methyl)piperazinyl]propan-2-ol | 6.3 | 
(2R)-3-(2-methylbenzothiazol-5-yloxy)-1-{4-[(2-phenyl(1,3-thiazol-4-yl))methyl]piperazinyl}propan-2-ol | 2.7 | 
(2R)-3-((2S)-4-{[5-(2-chlorophenyl)(1,3,4-oxadiazol-2-yl)]methyl}-2-methylpiperazinyl)-1-(2-methylbenzothiazol-5-yloxy)propan-2-ol | 0.34 | 
(2R)-3-((3S)-3-methyl-4-{[5-(4-trifluoromethylphenyl)isoxazol-3-yl]methyl}-piperazinyl)-1-(2-methylbenzothiazol-5-yloxy)propan-2-ol | 0.25 | 
(2R)-3-[(2S)-2-methyl-4-({2-[4-(trifluoromethyl)phenyl](1,3-oxazol-5-yl)}methyl)piperazinyl]-1-(2-methylbenzothiazol-5-yloxy)propan-2-ol | 0.37 | 
(2R)-3-[(2S)-2-methyl-4-({5-[2-chlorophenyl]isoxazol-3-yl}methyl)piperazinyl]-1-(2-methylbenzothiazol-5-yloxy)propan-2-ol | 0.6 | 
